# Test results published in patent US20230295234A1, “ANTIMICROBIAL PEPTIDOMIMETICS” (SPEXIS AG, priority 2020, published 2023).
# Peptide text beside a SMILES is read from it.
# Key:
# [1] = tested on: human red blood cells (hRBC); assay: Hemolysis of human red blood cells; assay type: cell-based; settings: red cells of human, 1 h
# In short: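 PBS-washed human red blood cells (20% v/v) were incubated with peptide at 200 μg/mL for 1 h at 37 °C with shaking. Supernatant OD was read at 540 nm after 8-fold dilution. Hemolysis is expressed as percent of the water control.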
# [2] = tested on: Klebsiella pneumoniae SSI3010; settings: SSI3010
# In short: (§1)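 Activity is measured against peptides serially diluted two-fold in water with 0.002% final Polysorbate 80. The cells are in cation-adjusted MHII broth at roughly 5×10^5 CFU/mL, prepared from a 0.5 McFarland suspension in 0.85% NaCl.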
# [3] = tested on: Escherichia coli MCR-1 Af 45; settings: MCR-1 Af 45
# In short: as §1
# [4] = tested on: Escherichia coli ATCC 25922; settings: ATCC 25922
# In short: as §1
smiles,measurement,setting,value
"CC[C@H](C)[C@H](NC(=O)[C@@H](NC(=O)[C@@H]1CCCN1C(=O)[C@@H](NC(=O)CN(C)C(=O)CNC(=O)[C@@H](N)CCCCN)C(C)C)[C@@H](C)CC)C(=O)N[C@@H](Cc1ccc(O)cc1)C(=O)N[C@@H]1C(=O)N[C@@H](CC(N)=O)C(=O)N[C@@H](CCCNC(=N)N)C(=O)N[C@@H](CCN)C(=O)N[C@@H]([C@@H](C)O)C(=O)N[C@H](CCN)C(=O)N[C@@H](CCCCN)C(=O)N[C@H](C(=O)N[C@@H](CCN)C(=O)N[C@@H](CCCNC(=N)N)C(=O)N[C@@H](Cc2ccc(O)cc2)C(=O)O)CSSC1(C)C [Example 94, Lys-Gly-Sar-Val-Pro-Ile-Ile-Tyr-Pen-Asn-Arg-Dab-Thr-^DDab-Lys-Cys-Dab-Arg-Tyr] (HELM PEPTIDE1{K.G.[Sar].V.P.I.I.Y.[Pen].N.R.[Dab].T.[NCC[C@@H](N[*:1])C(=O)[*:2]].K.C.[Dab].R.Y}$PEPTIDE1,PEPTIDE1,9:R3-16:R3$$$V2.0)",Hemolysis at 0.2 g/L,[1],0%
same,Klebsiella pneumoniae SSI3010 MIC,[2],0.125 mg/L
same,Escherichia coli MCR-1 Af 45 MIC,[3],≤0.03125 mg/L
same,Escherichia coli ATCC 25922 MIC,[4],0.125 mg/L
"CC[C@H](C)[C@H](NC(=O)[C@@H](NC(=O)[C@@H]1CCCN1C(=O)[C@@H](NC(=O)CN(C)C(=O)CN(C)C(=O)[C@@H](N)CCCCN)C(C)C)[C@@H](C)CC)C(=O)N[C@@H](Cc1ccc(O)cc1)C(=O)N[C@@H]1C(=O)N[C@@H](CC(N)=O)C(=O)N[C@@H](CCCNC(=N)N)C(=O)N[C@@H](CCN)C(=O)N[C@@H]([C@@H](C)O)C(=O)N[C@H](CCN)C(=O)N[C@@H](CCCCN)C(=O)N[C@H](C(=O)N[C@@H](CCN)C(=O)N[C@@H](CCCNC(=N)N)C(=O)N[C@@H](Cc2ccc(O)cc2)C(=O)O)CSSC1(C)C [Example 95, Lys-Sar-Sar-Val-Pro-Ile-Ile-Tyr-Pen-Asn-Arg-Dab-Thr-^DDab-Lys-Cys-Dab-Arg-Tyr] (HELM PEPTIDE1{K.[Sar].[Sar].V.P.I.I.Y.[Pen].N.R.[Dab].T.[NCC[C@@H](N[*:1])C(=O)[*:2]].K.C.[Dab].R.Y}$PEPTIDE1,PEPTIDE1,9:R3-16:R3$$$V2.0)",Hemolysis at 0.2 g/L,[1],0%
same,Klebsiella pneumoniae SSI3010 MIC,[2],0.25 mg/L
same,Escherichia coli MCR-1 Af 45 MIC,[3],0.125 mg/L
same,Escherichia coli ATCC 25922 MIC,[4],0.125 mg/L
"CC[C@H](C)[C@H](NC(=O)[C@@H](NC(=O)[C@@H]1CCCN1C(=O)[C@@H](NC(=O)[C@@H]1CCCN1C(=O)[C@H](CCCCN)NC(=O)CNCCN)C(C)C)[C@@H](C)CC)C(=O)N[C@@H](Cc1ccc(O)cc1)C(=O)N[C@H]1CSSC[C@@H](C(=O)N[C@@H](CCN)C(=O)N[C@@H](CCCNC(=N)N)C(=O)N[C@@H](Cc2ccc(O)cc2)C(=O)O)NC(=O)[C@H](CCCCN)NC(=O)[C@@H](CCN)NC(=O)[C@H]([C@@H](C)O)NC(=O)[C@H](CCN)NC(=O)[C@H](CCCNC(=N)N)NC(=O)[C@H](CC(N)=O)NC1=O [Example 96] (HELM PEPTIDE1{[NCCNCC(=O)[*:2]].K.P.V.P.I.I.Y.C.N.R.[Dab].T.[NCC[C@@H](N[*:1])C(=O)[*:2]].K.C.[Dab].R.Y}$PEPTIDE1,PEPTIDE1,9:R3-16:R3$$$V2.0)",Hemolysis at 0.2 g/L,[1],0%
same,Klebsiella pneumoniae SSI3010 MIC,[2],0.125 mg/L
same,Escherichia coli MCR-1 Af 45 MIC,[3],0.0625 mg/L
same,Escherichia coli ATCC 25922 MIC,[4],0.0625 mg/L
"CC[C@H](C)[C@H](NC(=O)[C@@H](NC(=O)[C@@H]1CCCN1C(=O)[C@@H](NC(=O)[C@@H]1CCCN1C(=O)[C@H](CCCCN)NC(=O)CNCCCCN)C(C)C)[C@@H](C)CC)C(=O)N[C@@H](Cc1ccc(O)cc1)C(=O)N[C@H]1CSSC[C@@H](C(=O)N[C@@H](CCN)C(=O)N[C@@H](CCCNC(=N)N)C(=O)N[C@@H](Cc2ccc(O)cc2)C(=O)O)NC(=O)[C@H](CCCCN)NC(=O)[C@@H](CCN)NC(=O)[C@H]([C@@H](C)O)NC(=O)[C@H](CCN)NC(=O)[C@H](CCCNC(=N)N)NC(=O)[C@H](CC(N)=O)NC1=O [Example 97] (HELM PEPTIDE1{[NCCCCNCC(=O)[*:2]].K.P.V.P.I.I.Y.C.N.R.[Dab].T.[NCC[C@@H](N[*:1])C(=O)[*:2]].K.C.[Dab].R.Y}$PEPTIDE1,PEPTIDE1,9:R3-16:R3$$$V2.0; N-terminus assumed)",Hemolysis at 0.2 g/L,[1],0%
same,Klebsiella pneumoniae SSI3010 MIC,[2],≤0.03125 mg/L
same,Escherichia coli MCR-1 Af 45 MIC,[3],≤0.03125 mg/L
same,Escherichia coli ATCC 25922 MIC,[4],≤0.03125 mg/L
"CC[C@H](C)[C@H](NC(=O)[C@@H](NC(=O)[C@@H]1CCCN1C(=O)[C@@H](NC(=O)[C@@H]1CCCN1C(=O)[C@H](CCCCN)NC(=O)CNCCCN)C(C)C)[C@@H](C)CC)C(=O)N[C@@H](Cc1ccc(O)cc1)C(=O)N[C@H]1CSSC[C@@H](C(=O)N[C@@H](CCN)C(=O)N[C@@H](CCCNC(=N)N)C(=O)N[C@@H](Cc2ccc(O)cc2)C(=O)O)NC(=O)[C@H](CCCCN)NC(=O)[C@@H](CCN)NC(=O)[C@H]([C@@H](C)O)NC(=O)[C@H](CCN)NC(=O)[C@H](CCCNC(=N)N)NC(=O)[C@H](CC(N)=O)NC1=O [Example 98] (HELM PEPTIDE1{[NCCCNCC(=O)[*:2]].K.P.V.P.I.I.Y.C.N.R.[Dab].T.[NCC[C@@H](N[*:1])C(=O)[*:2]].K.C.[Dab].R.Y}$PEPTIDE1,PEPTIDE1,9:R3-16:R3$$$V2.0)",Hemolysis at 0.2 g/L,[1],0%
same,Klebsiella pneumoniae SSI3010 MIC,[2],0.0625 mg/L
same,Escherichia coli MCR-1 Af 45 MIC,[3],≤0.03125 mg/L
same,Escherichia coli ATCC 25922 MIC,[4],≤0.03125 mg/L
"CC[C@H](C)[C@H](NC(=O)[C@@H](NC(=O)[C@@H]1CCCN1C(=O)[C@@H](NC(=O)[C@@H]1CCCN1C(=O)CN(CCN)C(=O)[C@@H](N)CCCCN)C(C)C)[C@@H](C)CC)C(=O)N[C@@H](Cc1ccc(O)cc1)C(=O)N[C@H]1CSSC[C@@H](C(=O)N[C@@H](CCN)C(=O)N[C@@H](CCCNC(=N)N)C(=O)N[C@@H](Cc2ccc(O)cc2)C(=O)O)NC(=O)[C@H](CCCCN)NC(=O)[C@@H](CCN)NC(=O)[C@H]([C@@H](C)O)NC(=O)[C@H](CCN)NC(=O)[C@H](CCCNC(=N)N)NC(=O)[C@H](CC(N)=O)NC1=O [Example 99] (HELM PEPTIDE1{K.[NCCN(CC(=O)[*:2])[*:1]].P.V.P.I.I.Y.C.N.R.[Dab].T.[NCC[C@@H](N[*:1])C(=O)[*:2]].K.C.[Dab].R.Y}$PEPTIDE1,PEPTIDE1,9:R3-16:R3$$$V2.0; N-terminus assumed)",Hemolysis at 0.2 g/L,[1],0%
same,Klebsiella pneumoniae SSI3010 MIC,[2],0.0625 mg/L
same,Escherichia coli MCR-1 Af 45 MIC,[3],≤0.03125 mg/L
same,Escherichia coli ATCC 25922 MIC,[4],≤0.03125 mg/L
"CC[C@H](C)[C@H](NC(=O)[C@@H](NC(=O)[C@@H]1CCCN1C(=O)[C@@H](NC(=O)[C@@H]1CCCN1C(=O)CN(CCCCN)C(=O)[C@@H](N)CCCCN)C(C)C)[C@@H](C)CC)C(=O)N[C@@H](Cc1ccc(O)cc1)C(=O)N[C@H]1CSSC[C@@H](C(=O)N[C@@H](CCN)C(=O)N[C@@H](CCCNC(=N)N)C(=O)N[C@@H](Cc2ccc(O)cc2)C(=O)O)NC(=O)[C@H](CCCCN)NC(=O)[C@@H](CCN)NC(=O)[C@H]([C@@H](C)O)NC(=O)[C@H](CCN)NC(=O)[C@H](CCCNC(=N)N)NC(=O)[C@H](CC(N)=O)NC1=O [Example 100] (HELM PEPTIDE1{K.[NCCCCN(CC(=O)[*:2])[*:1]].P.V.P.I.I.Y.C.N.R.[Dab].T.[NCC[C@@H](N[*:1])C(=O)[*:2]].K.C.[Dab].R.Y}$PEPTIDE1,PEPTIDE1,9:R3-16:R3$$$V2.0; N-terminus assumed)",Hemolysis at 0.2 g/L,[1],0%
same,Klebsiella pneumoniae SSI3010 MIC,[2],0.0625 mg/L
same,Escherichia coli MCR-1 Af 45 MIC,[3],≤0.03125 mg/L
same,Escherichia coli ATCC 25922 MIC,[4],0.03125 mg/L
"CC[C@H](C)[C@H](NC(=O)[C@@H](NC(=O)[C@@H]1CCCN1C(=O)[C@@H](NC(=O)[C@@H]1CCCN1C(=O)CN(CCCN)C(=O)[C@@H](N)CCCCN)C(C)C)[C@@H](C)CC)C(=O)N[C@@H](Cc1ccc(O)cc1)C(=O)N[C@H]1CSSC[C@@H](C(=O)N[C@@H](CCN)C(=O)N[C@@H](CCCNC(=N)N)C(=O)N[C@@H](Cc2ccc(O)cc2)C(=O)O)NC(=O)[C@H](CCCCN)NC(=O)[C@@H](CCN)NC(=O)[C@H]([C@@H](C)O)NC(=O)[C@H](CCN)NC(=O)[C@H](CCCNC(=N)N)NC(=O)[C@H](CC(N)=O)NC1=O [Example 101] (HELM PEPTIDE1{K.[NCCCN(CC(=O)[*:2])[*:1]].P.V.P.I.I.Y.C.N.R.[Dab].T.[NCC[C@@H](N[*:1])C(=O)[*:2]].K.C.[Dab].R.Y}$PEPTIDE1,PEPTIDE1,9:R3-16:R3$$$V2.0)",Hemolysis at 0.2 g/L,[1],0%
same,Klebsiella pneumoniae SSI3010 MIC,[2],0.0625 mg/L
same,Escherichia coli MCR-1 Af 45 MIC,[3],0.03125 mg/L
same,Escherichia coli ATCC 25922 MIC,[4],0.0625 mg/L
"CC[C@H](C)[C@H](NC(=O)CN(CCN)C(=O)[C@@H](NC(=O)[C@@H]1CCCN1C(=O)[C@H](CCCCN)NC(=O)[C@@H](N)CCCCN)C(C)C)C(=O)N[C@H](C(=O)N[C@@H](Cc1ccc(O)cc1)C(=O)N[C@H]1CSSC[C@@H](C(=O)N[C@@H](CCN)C(=O)N[C@@H](CCCNC(=N)N)C(=O)N[C@@H](Cc2ccc(O)cc2)C(=O)O)NC(=O)[C@H](CCCCN)NC(=O)[C@@H](CCN)NC(=O)[C@H]([C@@H](C)O)NC(=O)[C@H](CCN)NC(=O)[C@H](CCCNC(=N)N)NC(=O)[C@H](CC(N)=O)NC1=O)[C@@H](C)CC [Example 102, Lys-Lys-Pro-Val-Ndab-Ile-Ile-Tyr-Cys-Asn-Arg-Dab-Thr-^DDab-Lys-Cys-Dab-Arg-Tyr] (HELM PEPTIDE1{K.K.P.V.[NCCN(CC(=O)[*:2])[*:1]].I.I.Y.C.N.R.[Dab].T.[NCC[C@@H](N[*:1])C(=O)[*:2]].K.C.[Dab].R.Y}$PEPTIDE1,PEPTIDE1,9:R3-16:R3$$$V2.0)",Hemolysis at 0.2 g/L,[1],0%
same,Klebsiella pneumoniae SSI3010 MIC,[2],0.0625 mg/L
same,Escherichia coli MCR-1 Af 45 MIC,[3],0.0625 mg/L
same,Escherichia coli ATCC 25922 MIC,[4],0.0625 mg/L
